Experimental data as given in patent US10799595B2, “Pyrrolobenzodiazepine conjugates” (priority 2016, dated 2020).

Legend:
[1] = system: human tumour xenograft models; settings: quoted from REF 2014 impact study; cited from earlier work
[2] = system: human tumour cell lines; settings: cited from earlier work; for activity against a range of human tumour cell lines: quoted from REF 2014 impact study
[3] = system: DU145; assay: In vitro testing of compound 10, CellTiter-Glo viability, +/- β-glucuronidase, 72 hour assay; assay type: cell-based; settings: Homo sapiens, DU-145, 72 h
Protocol: DU145 (2000/well, 72 hour assay) and MDA-MB-361 (5000/well, 144 hour assay) cells were plated in culture medium to tissue culture-treated 96-well plates at a volume of 80 μL per well and allowed to adhere overnight. For warhead dilutions, first a 60× concentration of each dose to be tested was prepared by diluting the test articles in DMSO. The 60× dilutions of warhead were then further diluted to a 5× concentration in either cell culture medium alone or cell culture medium containing 5× β-glucuronidase enzyme (Sigma Cat # G0799-25KU). […] DMSO alone diluted to the culture medium was used as the controls. The treated cells were cultured at 37° C./5% CO2 for 72 to 144 hours (depending on established growth kinetics of each particular cell line). At the end of the assay, CellTiter-Glo® (CTG) Luminescent Viability Assay (Promega) was used to determine relative cytotoxicity. 100 μL of CTG reagent was added to each well, and plates were incubated for 10 minutes at room temperature with gentle shaking, absorbance of each sample was read at 560 nm using an EnVision luminometer (Perkin Elmer). The percent cell viability was calculated by the following formula: (average luminescence of treated samples/average luminescence of control samples)×100.
(§1) IC50 values were determined using logistic non-linear regression analysis with GraphPad Prism software.

[4] = system: MDA-MB-361; assay: In vitro testing of compound 10, CellTiter-Glo viability, +/- β-glucuronidase, 144 hour assay; assay type: cell-based; settings: Homo sapiens, MDA-MB-361, 144 h
Protocol: DU145 (2000/well, 72 hour assay) and MDA-MB-361 (5000/well, 144 hour assay) cells were plated in culture medium to tissue culture-treated 96-well plates at a volume of 80 μL per well and allowed to adhere overnight. For warhead dilutions, first a 60× concentration of each dose to be tested was prepared by diluting the test articles in DMSO. The 60× dilutions of warhead were then further diluted to a 5× concentration in either cell culture medium alone or cell culture medium containing 5× β-glucuronidase enzyme (Sigma Cat # G0799-25KU). 20 μL of cell culture medium containing test article+/−enzyme was added to cells in triplicate wells, and the final dose curve ranged from 6.4 nM to 61 pM in a stepwise 1:4 serial dilution series. DMSO alone diluted to the culture medium was used as the controls. […] 100 μL of CTG reagent was added to each well, and plates were incubated for 10 minutes at room temperature with gentle shaking, absorbance of each sample was read at 560 nm using an EnVision luminometer (Perkin Elmer). The percent cell viability was calculated by the following formula: (average luminescence of treated samples/average luminescence of control samples)×100.
as §1

COc1ccc(C2=CN3C(=O)c4cc(OC)c(OCCCOc5cc6c(cc5OC)C(=O)N5C=C(c7ccc(OC)cc7)C[C@H]5C=N6)cc4N=C[C@@H]3C2)cc1 [SG2202]
activity in human tumour xenograft models [1]: curative activity | activity against a range of human tumour cell lines [2]: picomolar/sub-picomolar activity

C=C1C[C@H]2C=Nc3cc(OCCCCCOc4cc5c(cc4OC)C(=O)N4CC(=C)C[C@H]4C=N5)c(OC)cc3C(=O)N2C1 [SG2057]
activity in human tumour xenograft models [1]: curative activity | activity against a range of human tumour cell lines [2]: picomolar/sub-picomolar activity

C=C1C[C@H]2C=Nc3cc(OCCCOc4cc5c(cc4OC)C(=O)N4CC(=C)C[C@H]4C=N5)c(OC)cc3C(=O)N2C1 [SG2000]
times less cytotoxic than SG2057 ([2]; see Hartley et al 2012): at least 10 times

C=C1C[C@H]2[C@H](O)N(C(=O)OCc3ccc(NC(=O)[C@H](C)NC(=O)[C@@H](NC(=O)CCOCCOCCOCCOCCOCCOCCOCCOCCNC(=O)CCN4C(=O)C=CC4=O)C(C)C)cc3)c3cc(OCCCOc4cc5c(cc4OC)C(=O)N4CC(=C)C[C@H]4[C@H](O)N5C(=O)OCc4ccc(O[C@@H]5O[C@H](C(=O)O)[C@@H](O)[C@H](O)[C@H]5O)c([N+](=O)[O-])c4)c(OC)cc3C(=O)N2C1 [Compound 10]
IC50 ([3]; No glucuronidase): 6.84 µM | IC50 ([3]; With glucuronidase): 0.201 µM | IC50 ([4]; No glucuronidase): 0.778 µM | IC50 ([4]; With glucuronidase): 0.032 µM
